# Columns and labels:
# [1] = molecular target: T1, human Adenosine A1 receptor (Homo sapiens, UniProt P30542); test: GTPγS scintillation proximity assay, agonist testing; assay type: biochemical; details: agonist activity; membrane extracts of CHO-K1 cells expressing recombinant human A1; read-out: A1AR EC50
# T1 construct: host or cells: CHO-K1
# T1 sequence (P30542 1-326): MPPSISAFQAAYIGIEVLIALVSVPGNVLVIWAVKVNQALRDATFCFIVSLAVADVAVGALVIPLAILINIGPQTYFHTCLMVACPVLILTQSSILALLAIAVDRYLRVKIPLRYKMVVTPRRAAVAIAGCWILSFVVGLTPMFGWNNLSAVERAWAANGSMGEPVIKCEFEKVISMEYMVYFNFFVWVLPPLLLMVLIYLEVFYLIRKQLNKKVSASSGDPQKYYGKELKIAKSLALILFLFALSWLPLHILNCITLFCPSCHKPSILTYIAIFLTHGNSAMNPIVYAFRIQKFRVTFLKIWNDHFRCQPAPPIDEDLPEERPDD
# Procedure: (§1) SPA ^35S-GTPγS experiments were conducted with Epics Therapeutics membrane preparations. cAMP HTRF assays were conducted with recombinant cell lines.
# • Assay buffer: 20 mM HEPES pH 7.4; 100 mM NaCl, 10 μg/mL saponin, MgCl2 at optimized concentration for the specific receptor. • Membranes: membrane extracts prepared from CHO-K1 cells expressing recombinant human Adenosine A1 receptor, thawed on ice, diluted in assay buffer and kept on ice. • GDP: diluted in assay buffer at the optimized concentration for the specific receptor Beads: PVT-WGA (Perkin Elmer, RPNQ001), diluted in assay buffer at 50 mg/mL (0.5 mg/10 μL) • GTPγ^35S: (Perkin Elmer, NEG030X), diluted in assay buffer for a final 0.1 nM assay concentration
# Protocol for agonist testing: membranes are mixed with GDP (volume:volume). In parallel, GTPγ[^35S] is mixed with the beads (volume:volume) just before starting the reaction. The following reagents are successively added in the wells of an Optiplate (Perkin Elmer): 50 μL of test or reference ligand, 25 μL of the membranes:GDP mix, and 25 μL of the GTPγ[^35S]:beads mix. The plates are covered with a top seal, mixed on an orbital shaker for 2 min, and then incubated for 1 hour at room temperature. Then the plates are centrifuged for 10 min at 2000 rpm, incubated at room temperature and counted for 30 sec/well with a PerkinElmer TopCount™ reader. • Conditions for the GTPγS scintillation proximity assay are shown in Table 14.
# human A2B = molecular target: T2, human A2B (Homo sapiens, UniProt P29275); test: cAMP HTRF assay for Gs coupled receptor, agonist test; assay type: cell-based; details: agonist activity; HEK293 cells expressing recombinant human A2B; read-out: A2BAR EC50
# T2 construct: expressed in transfected cells; host or cells: HEK293
# T2 sequence (P29275 1-332): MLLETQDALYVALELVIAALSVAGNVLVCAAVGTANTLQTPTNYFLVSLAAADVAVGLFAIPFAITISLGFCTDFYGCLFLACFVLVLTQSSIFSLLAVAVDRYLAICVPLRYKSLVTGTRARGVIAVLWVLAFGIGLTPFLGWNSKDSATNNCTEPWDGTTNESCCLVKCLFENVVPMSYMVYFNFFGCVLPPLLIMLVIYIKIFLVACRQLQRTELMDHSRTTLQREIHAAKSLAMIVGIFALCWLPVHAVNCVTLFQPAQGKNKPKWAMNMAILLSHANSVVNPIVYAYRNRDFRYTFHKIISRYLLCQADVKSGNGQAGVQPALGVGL
# Procedure: as §1
# Dose response curves are performed in parallel with the reference compounds.
# For agonist test (96 well): 12 μL of cells are mixed with 12 μL of the test compound at increasing concentrations and then incubated 30 min at room temperature. After addition of the lysis buffer containing cAMP-d2 and anti-cAMP cryptate detection reagents, plates are incubated 1 hour incubation at room temperature, and fluorescence ratios are measured according to the manufacturer specification, with the HTRF kit.
SMILES,EC50 [1],EC50 (human A2B)
CNc1nc(SCc2cccnc2)c(C#N)c(-c2ccc(OCCOC)cc2)c1C#N [Compound 284],> 10000 nM,> 10000 nM
N#Cc1cnc(SCC2CCCO2)c(C#N)c1-c1ccc(OCCO)cc1 (stereo not shown) [Compound 1],> 10000 nM,5850 nM
N#Cc1c(N)nc(SCC2(F)COC2)c(C#N)c1-c1ccc(OC2COC2)cc1 [Compound 227],326 nM,> 10000 nM
N#Cc1c(N)nc(SCc2cccc3[nH]ccc23)c(C#N)c1-c1ccc(OCCO)cc1 [Compound 8],37.1 nM,37.7 nM
N#Cc1c(N)nc(SCc2cnccn2)c(C#N)c1-c1ccc(OCCO)cc1 [Compound 172],12 nM,3.9 nM
N#Cc1c(N)nc(SC2CCOCC2)c(C#N)c1-c1ccc(OCCO)cc1 [Compound 32],890 nM,> 10000 nM
COCCOc1ccc(-c2c(C#N)c(N)nc(SCc3ccccc3)c2C#N)cc1 [Compound 152],92 nM,> 10000 nM
COCCOc1ccc(-c2c(C#N)c(N)nc(Sc3cccnc3)c2C#N)cc1 [Compound 246],> 10000 nM,> 10000 nM
COCCOc1ccc(-c2c(C#N)c(N)nc(SCCO)c2C#N)cc1 [Compound 192],25 nM,> 10000 nM
"N#Cc1c(SCc2cccnc2)nc(C2CC2)c(C#N)c1-c1ccc(OCCO)cc1 [Compound 45, 2-Cyclopropyl-4-[4-(2-hydroxyethoxy)phenyl]-6-(3-pyridylmethylsulfanyl)-pyridine-3,5-dicarbonitrile]",34.3 nM,8.2 nM
N#Cc1c(N)nc(SCCC(F)(F)F)c(C#N)c1-c1ccc(OCCO)cc1 [Compound 113],316 nM,≥ 10000 nM
N#Cc1c(N)nc(SCc2ccccc2)c(C#N)c1-c1ccc(OCCO)cc1 [Compound 150],12 nM,4.2 nM
N#Cc1c(SCCC(F)(F)F)nc(N2CCCC2)c(C#N)c1-c1ccc(OCCO)cc1 [Compound 104],1790 nM,> 10000 nM
CCOCCSc1nc(N)c(C#N)c(-c2ccc(OC3COC3)cc2)c1C#N [Compound 17],99.1 nM,5950 nM
N#Cc1c(N)nc(SCc2cccc(OC(F)(F)F)c2)c(C#N)c1-c1ccc(OC2COC2)cc1 [Compound 29],79 nM,6120 nM
CNc1nc(OCC2COC2)c(C#N)c(-c2ccc(OC3COC3)cc2)c1C#N [Compound 288],308 nM,> 10000 nM
COC1CC(Oc2ccc(-c3c(C#N)c(N)nc(SCC4COC4)c3C#N)cc2)C1 (stereo not shown) [Compound 323],227 nM,> 10000 nM
N#Cc1c(SCc2cccnn2)nc(C2CC2)c(C#N)c1-c1ccc(OCCOC2COC2)cc1 [Compound 242],905 nM,749 nM
CC(Sc1nc(N)c(C#N)c(-c2ccc(OC3COC3)cc2)c1C#N)C1COC1 (stereo not shown) [Compound 285],958 nM,> 10000 nM
N#Cc1c(N)nc(SCc2cccnc2)c(C#N)c1-c1ccc(O[C@@H]2CCOC2)cc1 [Compound 236],164 nM,49.3 nM
COCCOc1ccc(-c2c(C#N)c(N)nc(SCc3cccc4c3CCO4)c2C#N)cc1 [Compound 212],7600 nM,> 10000 nM
N#Cc1c(N)nc(SCC2COC2)c(C#N)c1-c1ccc(OCCO)cc1 [Compound 319],1.53 nM,401 nM
"N#Cc1cnc(SCC2COC2)c(C#N)c1-c1ccc(OCCO)cc1 [Compound 61, 4-[4-(2-hydroxyethoxy)phenyl]-2-(oxetan-3-ylmethythio)pyridine-3,5-dicarbonitrile]",620 nM,> 10000 nM
N#Cc1c(N)nc(SCc2cccnc2)c(C#N)c1-c1ccc(OC(F)(F)CO)cc1 [Compound 309],6.48 nM,0.962 nM
COCCOc1ccc(-c2c(C#N)c(N)nc(SCc3cncc4[nH]ccc34)c2C#N)cc1 [Compound 216],> 10000 nM,> 10000 nM

SMILES,EC50 [1],EC50 (human A2B)
"N#Cc1c(N)nc(SCC2COC2)c(C#N)c1-c1ccc(OC(F)(F)COC(F)F)cc1 [Compound 289, 2-Amino-4-(4-(2-(difluoromethoxy)-1,1-difluoroethoxy)phenyl)-6-((oxetan-3-ylmethyl)thio)pyridine-3,5-dicarbonitrile]",> 10000 nM,> 10000 nM
COCCOc1ccc(-c2c(C#N)cnc(SCCO)c2C#N)cc1 [Compound 94],1010 nM,> 10000 nM
COCCOc1ccc(-c2c(C#N)c(SCC3COC3)nc(N3CC(F)(F)C3)c2C#N)cc1 [Compound 269],615 nM,> 10000 nM
N#Cc1c(N)nc(SCc2cccnn2)c(C#N)c1-c1ccc(OCCOC(F)F)cc1 [Compound 237],1.62 nM,5360 nM
COCCOc1ccc(-c2c(C#N)c(N)nc(SCC3CCO3)c2C#N)cc1 (stereo not shown) [Compound 112],944 nM,> 10000 nM
CC(=O)NCCSc1nc(N)c(C#N)c(-c2ccc(OCCO)cc2)c1C#N [Compound 119],161 nM,925 nM
COc1nc(SCC2COC2)c(C#N)c(-c2ccc(OCCO)cc2)c1C#N [Compound 281],827 nM,> 10000 nM
COCCOc1ccc(-c2c(C#N)c(SCc3cccnc3)nc(N(C)C)c2C#N)cc1 [Compound 286],> 10000 nM,> 10000 nM
COCCOc1ccc(-c2c(C#N)c(N)nc(SCC3COC3)c2C#N)cc1 [Compound 123],72 nM,> 10000 nM
N#Cc1c(N)nc(SCC2CCO2)c(C#N)c1-c1ccc(OCCO)cc1 (stereo not shown) [Compound 110],253 nM,177 nM
COCCOc1ccc(-c2c(C#N)c(C)nc(SCCC(F)(F)F)c2C#N)cc1 [Compound 47],> 10000 nM,36.1 nM
N#Cc1c(N)nc(SCc2cccc3[nH]cnc23)c(C#N)c1-c1ccc(OCCO)cc1 [Compound 5],> 10000 nM,13.4 nM
N#Cc1c(SCc2cncnc2)nc(N2CCC2)c(C#N)c1-c1ccc(OCCO)cc1 [Compound 23],100 nM,420 nM
N#Cc1c(N)nc(SCC2CCOC2)c(C#N)c1-c1ccc(OC2CCCOC2)cc1 (stereo not shown) [Compound 326],> 10000 nM,> 10000 nM
COCCOc1ccc(-c2c(C#N)c(N)nc(CCc3cccnc3)c2C#N)cc1 [Compound 191],567 nM,> 10000 nM
N#Cc1c(N)nc(SCC2(O)COC2)c(C#N)c1-c1ccc(OCCO)cc1 [Compound 313],55 nM,> 10000 nM
COCCOc1ccc(-c2c(C#N)c(SCc3cccnn3)nc(N3CCC3)c2C#N)cc1 [Compound 12],483 nM,> 10000 nM
CCOCCSc1nc(N)c(C#N)c(-c2ccc(OCCO)cc2)c1C#N [Compound 27],31.4 nM,65.9 nM
COCCOc1ccc(-c2c(C#N)c(N)nc(SCc3ccncn3)c2C#N)cc1 [Compound 232],1.51 nM,> 10000 nM
N#Cc1c(N)nc(SCC2CCOC2)c(C#N)c1-c1ccc(OC2CCOC2)cc1 (stereo not shown) [Compound 218],353 nM,> 10000 nM
N#Cc1c(SCc2cccnc2)nc(N2CCC2)c(C#N)c1-c1ccc(OCCO)cc1 [Compound 116],2.9 nM,3.9 nM
N#Cc1c(N)nc(SCCC(F)(F)F)c(C#N)c1-c1ccc(O[C@H]2C[C@H](O)C2)cc1 [Compound 328],> 10000 nM,> 10000 nM
N#Cc1c(N)nc(SCc2nc3cc(Cl)ccc3s2)c(C#N)c1-c1ccc(OCCO)cc1 [Compound 208],500 nM,98 nM
N#Cc1c(SCc2cccnc2)nc(N2CCCC2)c(C#N)c1-c1ccc(OCCOC(F)F)cc1 [Compound 257],> 10000 nM,> 10000 nM
N#Cc1c(SCc2cccnc2)nc(N2CC(F)(F)C2)c(C#N)c1-c1ccc(OC(F)(F)CO)cc1 [Compound 256],> 10000 nM,> 10000 nM
